Measured values from article PMC12508156, “Non-canonical dihydrolipoyl transacetylase promotes chemotherapy resistance via mitochondrial tetrahydrofolate signaling” (Nature Communications, 2025).
Where “and” joins values, the source holds several entries; their conditions need not be identical. Equal entries are not always repeated.

Assays:
[1] = tested on: HT-29 cells; assay: Apoptotic cell death (annexin V/PI staining); type: cell-based, human; details: Supple Fig 6B
Description: (§1) Cell viability was determined using the CellTiter-Glo Luminescent Cell Viability Assay. […] Subsequently, the cells were cultured in complete medium for an additional 10 days, and the resulting colonies were visualized by staining with crystal violet and quantified using ImageJ software. For cell cycle analysis, cells fixed with 70% ethanol were stained with RNase A (100 µg/mL) and propidium iodide (50 μg/ml) for 30 min at 37 °C, and DNA content distribution was measured using flow cytometry (BD Symphony A3) and analyzed with FlowJo software (v10.9). Apoptotic cell death was assessed via FITC-conjugated annexin V and propidium iodide staining.
(§2) Colon cancer cell lines, HCT116 (a) and HT-29 (b), were stably transduced with DLAT shRNA harboring lentivirus, followed by annexin V staining and CellTiter Glo Viability assay. Error bars represent SD and are from 3 independent biological replicates. P values were obtained by one-way ANOVA.
(§3) (1 picture or pasted object on this page, not shown here)

[2] = tested on: HCT116 cells; assay: Apoptotic cell death (annexin V/PI staining); type: cell-based, human; details: Supple Fig 6A
Description: as §1, §2, §3

[3] = tested on: lung cancer patient-derived xenograft tumors; assay: IHC of lung cancer PDX tumors (Ac-K44 MTHFD2, MT-CO2, DLAT); type: in vivo, athymic nu/nu mice; parameters: key: IHC intensity score 0 to 3+; details: lung cancer PDX tumors (Figure 8M)
From the text: Formalin-fixed and paraffin-embedded tumor tissue specimens from HNSCC and NSCLC patients were obtained from the […] Cancer Tissue and Pathology Shared Resources. The Institutional Review Board (IRB) of Emory University approved using human specimens (IRB00003208 - HNSCC, IRB00098377 - NSCLC). Clinical samples were collected with informed consent according to the Health Insurance Portability and Accountability Act. Patients' clinical information was obtained through the […] Technology Applications Shared Resource. Tumors from HNSCC or NSCLC patients who received chemotherapy-containing regimens were used. Immunohistochemistry (IHC) staining of DLAT, acetyl-[…] MTHFD2, MT-CO2, and Ki-67 was performed based on the established protocol. Antigen retrieval was conducted in Tris-EDTA (pH 9.0) for acetyl-[…] MTHFD2 and MT-CO2 and sodium citrate (pH 6.0) for the remaining antigens. […] Assessment of positive DLAT, MT-CO2, and acetyl-[…] MTHFD2 staining intensity within tumor cells was performed using a scoring system ranging from 0 to 3+ based on IHC signal intensity. Mice were subcutaneously injected into the flank with 1 × 10^6 KB-3-1^cisR cells with or without DLAT knockdown. […] Tumors were collected at the experimental endpoint, and tumor proliferation was assessed using Ki-67 IHC staining. The localization, penetration, and efficacy of DMp39 were monitored by assessing the acetyl-[…] levels in tumors and fluorescence imaging analysis using an IVIS imaging system. Drug-induced organ toxicities, including splenomegaly, liver damage, and kidney injury, were monitored by assessing spleen index, alanine transaminase activity, and cystatin C levels in plasma.

[4] = tested on: KB-3-1cisR cells; assay: Apoptotic cell death (annexin V/PI staining); type: cell-based, human
[5] = tested on: KB-3-1cisR xenograft tumors; assay: KB-3-1cisR xenograft tumor growth (volume, weight); type: in vivo, athymic nu/nu mice; parameters: unit not given here; details: cisplatin 5 mg/kg i.p. twice a week, endpoint, n=1-8: individual mice, listed as cis
Description: All animal procedures were conducted based on the protocol (DAR-PROTO-201700885) approved by the Emory University Institutional Animal Care and Use Committee. Female athymic nu/nu mice (Hsd:Athymic Nude-Foxn1nu, 6-week-old; Envigo) were housed under specific pathogen-free (SPF) conditions in the Emory University animal facility. […] Mice were subcutaneously injected into the flank with 1 × 10^6 KB-3-1^cisR cells with or without DLAT knockdown. […] Tumors were collected at the experimental endpoint, and tumor proliferation was assessed using Ki-67 IHC staining. The localization, penetration, and efficacy of DMp39 were monitored by assessing the acetyl-[…] levels in tumors and fluorescence imaging analysis using an IVIS imaging system. Drug-induced organ toxicities, including splenomegaly, liver damage, and kidney injury, were monitored by assessing spleen index, alanine transaminase activity, and cystatin C levels in plasma.

[6] = tested on: H1299 cells; assay: Cell viability (CellTiter-Glo); type: cell-based, human; parameters: unit not given here; details: 48 h, n=1-3: biological replicates
Description: as §1

[7] = tested on: KB-3-1cisR cells; assay: Cell viability (CellTiter-Glo); type: cell-based, human; parameters: unit not given here; details: 48 h, n=1-3: biological replicates
Description: as §1

[8] = tested on: A549cisR cells; assay: Cell viability (CellTiter-Glo); type: cell-based, human; parameters: unit not given here; details: 48 h, n=1-3: biological replicates
Description: as §1

[9] = tested on: PCI-37B cells; assay: Cell viability (CellTiter-Glo); type: cell-based, human; parameters: unit not given here; details: 48 h, n=1-3: biological replicates
Description: as §1

[10] = tested on: PCI-37B cells; assay: Apoptotic cell death (annexin V/PI staining); type: cell-based, human; details: cisplatin 1 μg/ml, 48 h, n=1-3: biological replicates

N.N.[Cl][Pt][Cl] [cisplatin]
Apoptotic death ([1]; HT-29, pLKO.1 control cells + cis, replicate n=2): 20 | Apoptotic death ([1]; HT-29, pLKO.1 control cells + cis, replicate n=3): 20.2 | Apoptotic death ([1]; HT-29, shDLAT cells + cis, replicate n=1): 20.2 | Apoptotic death ([1]; HT-29, shDLAT cells + cis, replicate n=2): 22.2 | Apoptotic death ([1]; HT-29, shDLAT cells + cis, replicate n=3): 22.9 | Apoptotic death ([2]; HCT116, pLKO.1 control cells + cis, replicate n=2): 17.9 | Apoptotic death ([2]; HCT116, shDLAT cells + cis, replicate n=2): 15.5 | Apoptotic death ([2]; HCT116, shDLAT cells + cis, replicate n=3): 18.3 | Ac-K44 (IHC score) ([3]; n=1): 2 | DLAT (IHC score) ([3]; n=1): 1 | MT-CO2 (IHC score) ([3]; n=1): 3 | Ac-K44 (IHC score) ([3]; n=2): 2 | DLAT (IHC score) ([3]; n=2): 2 | MT-CO2 (IHC score) ([3]; n=2): 3 | Ac-K44 (IHC score) ([3]; n=3): 3 | DLAT (IHC score) ([3]; n=3): 3 | MT-CO2 (IHC score) ([3]; n=3): 3 | Ac-K44 (IHC score) ([3]; n=4): 3 | DLAT (IHC score) ([3]; n=4): 2 | MT-CO2 (IHC score) ([3]; n=4): 2 | Ac-K44 (IHC score) ([3]; n=5): 2 | DLAT (IHC score) ([3]; n=5): 2 | MT-CO2 (IHC score) ([3]; n=5): 3 | Apoptotic death ([4]; KB-3-1cisR pLKO.1+pLHCX, cisplatin 5 μg/ml, 48 h, n=1-4: biological replicates, listed as cis): 8.39 and 8.75 and 8.86 and 8.83 | Apoptotic death ([4]; KB-3-1cisR shDLAT+DLAT(WT) rescue, cisplatin 5 μg/ml, 48 h, n=1-4: biological replicates, listed as cis): 6.91 and 7.48 and 7.23 | Apoptotic death ([4]; KB-3-1cisR, KQ, sheet Figure 6E, replicate n=3): 10 | Apoptotic death ([4]; KB-3-1cisR, shDLAT, sheet Figure 5F, replicate n=1): 63.6 | Apoptotic death ([4]; KB-3-1cisR, shDLAT, sheet Figure 5F, replicate n=2): 64.3 | Tumor weight ([5]; KB-3-1cisR pLKO.1 xenograft): 0.88 and 0.77 and 0.52 and 1.65 and 1.63 and 1.39 and 1.43 and 1.01 | Tumor weight ([5]; KB-3-1cisR shDLAT #1 xenograft): 0.29 and 0.41 and 0.58 and 0.1 and 0.06 and 0.15 and 0.16 and 0.23 | Tumor weight ([5]; KB-3-1cisR shDLAT #2 xenograft): 0.63 and 0.5 and 0.66 and 0.02 and 0.08 and 0.19 and 0.34 and 0.36 | cisplatin IC50 ([6]; H1299, DLAT #1 shRNA knockdown): 4.334 and 4.088 and 4.359 | cisplatin IC50 ([6]; H1299, DLAT #2 shRNA knockdown): 9.212 and 9.08 and 8.246 | cisplatin IC50 ([6]; H1299, pLKO.1 control): 13.89 and 13.96 and 12.36 | cisplatin IC50 ([7]; DLAT #1 shRNA knockdown): 5.222 and 4.723 and 5.403 | cisplatin IC50 ([7]; DLAT #2 shRNA knockdown): 8.292 and 8.491 and 9.402 | cisplatin IC50 ([7]; pLKO.1 control): 35.64 and 37.47 and 39.03 | cisplatin IC50 ([8]; DLAT #1 shRNA knockdown): 3.049 and 3.093 and 3.477 | cisplatin IC50 ([8]; DLAT #2 shRNA knockdown): 3.68 and 3.342 and 3.385 | cisplatin IC50 ([8]; pLKO.1 control): 10.93 and 10.63 and 11.6 | cisplatin IC50 ([9]; DLAT #1 shRNA knockdown): 0.6706 and 0.655 and 0.6977 | cisplatin IC50 ([9]; DLAT #2 shRNA knockdown): 1.089 and 1.15 and 1.31 | cisplatin IC50 ([9]; pLKO.1 control): 2.128 and 2.267 and 2.42 | Apoptotic death ([10]; PCI-37B pLKO.1): 19.17 | Apoptotic death ([10]; PCI-37B shDLAT #1): 38.02 | Apoptotic death ([10]; PCI-37B shDLAT #2): 33.33 and 33.41 and 32.54
